Patent publication US20250255848A1, “SUBSTITUTED 6,7-DIHYDRO-5H-BENZO[7]ANNULENE DERIVATIVES, PROCESSES FOR THEIR PREPARATION AND THERAPEUTIC USES THEREOF” (SANOFI, priority 2022, published 2025)

Target: ERα (Homo sapiens (Human), UniProt P03372)
Experiment: Estrogen receptor degradation activity: breast cancer cell ERα in cell western assay
Assay type: cell-based
Settings: MCF7 cells; for % Degradation At 0.3 μM: 4 hours, normalised to fulvestrant 0.1 μM and DMSO; for IC50: 4 hours post compound addition, concentration which degrades 50% of the estrogen receptor
Method: Said test involves measuring the in vitro degradation activity of the compounds of the Table 1a.
The measurements of the degradation activities were made using a breast cancer cell ERα in cell western assay as described hereunder.
MCF7 cells (ATCC) were seeded in 384 wells microplate (collagen coated) at a concentration of 10000 cells/30 μL per well in red phenol free MEM alpha medium (invitrogen) containing 5% charcoal dextran striped FBS. The following day, 9 points serial 1:5 dilution of each compound was added to the cells in 2.5 μL at final concentrations ranging from 0.3-0.0000018 μM (in table 2), or 0.1 μM for fulvestrant (using as positive control). At 4 hours post compound addition the cells were fixed by adding 25 μL of formalin (final concentration 5% formalin containing 0.1% triton) for 10 minutes at room temperature and then washed twice with PBS. Then, 50 μL of LI-COR blocking buffer containing 0.1% Triton was added to plate for 30 minutes at room temperature. LI-COR blocking buffer was removed and cells were incubated overnight at cold room with 50 μL anti-ER rabbit monoclonal antibody (Thermo scientific MA1-39540) diluted at 1:1000 in LI-COR blocking buffer containing 0.1% tween-20. Wells which were treated with blocking buffer but no antibody were used as background control. Wells were washed twice with PBS (0.1% tween-20) and incubated at 37° C. for 60 minutes in LI-COR (0.1% tween-20) containing goat anti-rabbit antibody Alexa 488 (1:1000) and Syto-64 a DNA dye (2 μM final concentration). Cells were then washed 3 times in PBS and scanned in ACUMEN explorer (TTP-Labtech). Integrated intensities in the green fluorescence and red fluorescence were measured to determine the levels of ERα and DNA respectively.
The degradation activity with respect to estrogen receptors in this test is given by the concentration which degrades 50% of the estrogen receptor (or IC50) in nM.
The % of ERα levels decrease were determined as follows: % inhibition=100*(1−(sample−fulvestrant:DMSO−fulvestrant)).

ERα, sequence (P03372 whole entry): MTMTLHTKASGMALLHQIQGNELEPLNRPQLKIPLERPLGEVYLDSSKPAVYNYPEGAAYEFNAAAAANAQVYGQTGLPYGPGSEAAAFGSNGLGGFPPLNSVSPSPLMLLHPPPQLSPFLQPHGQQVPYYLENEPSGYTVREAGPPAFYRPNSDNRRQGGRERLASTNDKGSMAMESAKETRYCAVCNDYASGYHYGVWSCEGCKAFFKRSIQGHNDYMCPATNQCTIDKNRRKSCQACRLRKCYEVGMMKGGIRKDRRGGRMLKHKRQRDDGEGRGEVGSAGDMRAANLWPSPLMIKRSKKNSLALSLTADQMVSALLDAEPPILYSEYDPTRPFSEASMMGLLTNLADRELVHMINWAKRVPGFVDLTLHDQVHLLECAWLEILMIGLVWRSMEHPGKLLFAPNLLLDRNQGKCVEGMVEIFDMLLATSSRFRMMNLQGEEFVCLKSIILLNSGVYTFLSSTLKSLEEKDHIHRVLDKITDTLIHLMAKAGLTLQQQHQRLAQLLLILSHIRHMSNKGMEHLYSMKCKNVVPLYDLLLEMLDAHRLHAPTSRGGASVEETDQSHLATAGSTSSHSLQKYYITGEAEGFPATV

| Structure (SMILES) | % Degradation At 0.3 μM [%] | IC50 [pM] |
| --- | --- | --- |
| COc1cc(C)c(C2=C(c3ccc(C=C4CN(CCCF)C4)cc3)c3ccc(C(=O)O)cc3CCC2)c(C)c1 [Compound 18, 9-(4-((1-(3-fluoropropyl)azetidin-3-ylidene)methyl)phenyl)-8-(4-methoxy-2,6-dimethylphenyl)-6,7-dihydro-5H-benzo[7]annulene-3-carboxylic acid] | 91 | 600 |
| CCc1ccc(C2=C(c3ccc(C=C4CN(CCCF)C4)cc3)c3ccc(C(=O)O)cc3CCC2)c(C(F)(F)F)c1 [Compound 19, 8-(4-ethyl-2-(trifluoromethyl)phenyl)-9-(4-((1-(3-fluoropropyl)azetidin-3-ylidene)methyl)phenyl)-6,7-dihydro-5H-benzo[7]annulene-3-carboxylic acid] | 92 | 200 |
| O=C(O)c1ccc2c(c1)CCCC(c1c(F)cccc1C(F)(F)F)=C2c1ccc(C=C2CN(CCCF)C2)cc1 [Compound 20, 8-(2-fluoro-6-(trifluoromethyl)phenyl)-9-(4-((1-(3-fluoropropyl)azetidin-3-ylidene)methyl)phenyl)-6,7-dihydro-5H-benzo[7]annulene-3-carboxylic acid] | 94 | 600 |
| Cc1cccc(Cl)c1C1=C(c2ccc(C=C3CN(CCCF)C3)cc2)c2ccc(C(=O)O)cc2CCC1 [Compound 21, 8-(2-chloro-6-methylphenyl)-9-(4-((1-(3-fluoropropyl)azetidin-3-ylidene)methyl)phenyl)-6,7-dihydro-5H-benzo[7]annulene-3-carboxylic acid] | 93 | 500 |
| COc1cccc(F)c1C1=C(c2ccc(C=C3CN(CCCF)C3)cc2)c2ccc(C(=O)O)cc2CCC1 [Compound 22, 8-(2-fluoro-6-methoxyphenyl)-9-(4-((1-(3-fluoropropyl)azetidin-3-ylidene)methyl)phenyl)-6,7-dihydro-5H-benzo[7]annulene-3-carboxylic acid] | 94 | 500 |
| COc1cccc(Cl)c1C1=C(c2ccc(C=C3CN(CCCF)C3)cc2)c2ccc(C(=O)O)cc2CCC1 [Compound 23, 8-(2-chloro-6-methoxyphenyl)-9-(4-((1-(3-fluoropropyl)azetidin-3-ylidene)methyl)phenyl)-6,7-dihydro-5H-benzo[7]annulene-3-carboxylic acid] | 91 | 400 |
| Cc1c(OC(F)(F)F)cccc1C1=C(c2ccc(C=C3CN(CCCF)C3)cc2)c2ccc(C(=O)O)cc2CCC1 [Compound 24, 9-(4-((1-(3-fluoropropyl)azetidin-3-ylidene)methyl)phenyl)-8-(2-methyl-3-(trifluoromethoxy)phenyl)-6,7-dihydro-5H-benzo[7]annulene-3-carboxylic acid] | 91 | 500 |
| CCc1cc(C(F)(F)F)ccc1C1=C(c2ccc(C=C3CN(CCCF)C3)cc2)c2ccc(C(=O)O)cc2CCC1 [Compound 25, 8-(2-ethyl-4-(trifluoromethyl)phenyl)-9-(4-((1-(3-fluoropropyl)azetidin-3-ylidene)methyl)phenyl)-6,7-dihydro-5H-benzo[7]annulene-3-carboxylic acid] | 91 | 400 |
| Cc1cccc(F)c1C1=C(c2ccc(C=C3CN(CCCF)C3)cc2)c2ccc(C(=O)O)cc2CCC1 [Compound 26, 8-(2-fluoro-6-methylphenyl)-9-(4-((1-(3-fluoropropyl)azetidin-3-ylidene)methyl)phenyl)-6,7-dihydro-5H-benzo[7]annulene-3-carboxylic acid] | 91 | 200 |
| Cc1cc(C2=C(c3ccc(C=C4CN(CCCF)C4)cc3)c3ccc(C(=O)O)cc3CCC2)c(C)cc1F [Compound 27, 8-(4-fluoro-2,5-dimethylphenyl)-9-(4-((1-(3-fluoropropyl)azetidin-3-ylidene)methyl)phenyl)-6,7-dihydro-5H-benzo[7]annulene-3-carboxylic acid] | 93 | 500 |
| Cc1cc(C2=C(c3ccc(C=C4CN(CCCF)C4)cc3)c3ccc(C(=O)O)cc3CCC2)ccc1C(F)F [Compound 28, 8-(4-(difluoromethyl)-3-methylphenyl)-9-(4-((1-(3-fluoropropyl)azetidin-3-ylidene)methyl)phenyl)-6,7-dihydro-5H-benzo[7]annulene-3-carboxylic acid] | 94 | 500 |
| COc1cc(C(F)F)ccc1C1=C(c2ccc(C=C3CN(CCCF)C3)cc2)c2ccc(C(=O)O)cc2CCC1 [Compound 29, 8-(4-(difluoromethyl)-2-methoxyphenyl)-9-(4-((1-(3-fluoropropyl)azetidin-3-ylidene)methyl)phenyl)-6,7-dihydro-5H-benzo[7]annulene-3-carboxylic acid] | 93 | 600 |
| Cc1cccc(C2=C(c3ccc(C=C4CN(CCCF)C4)cc3)c3ccc(C(=O)O)cc3CCC2)c1C(F)F [Compound 30, 8-(2-(difluoromethyl)-3-methylphenyl)-9-(4-((1-(3-fluoropropyl)azetidin-3-ylidene)methyl)phenyl)-6,7-dihydro-5H-benzo[7]annulene-3-carboxylic acid] | 91 | 400 |
| COc1cc(C2=C(c3ccc(C=C4CN(CCCF)C4)cc3)c3ccc(C(=O)O)cc3CCC2)ccc1C(F)F [Compound 31, 8-(4-(difluoromethyl)-3-methoxyphenyl)-9-(4-((1-(3-fluoropropyl)azetidin-3-ylidene)methyl)phenyl)-6,7-dihydro-5H-benzo[7]annulene-3-carboxylic acid] | 95 | 37800 |
| O=C(O)c1ccc2c(c1)CCCC(c1ccccc1CF)=C2c1ccc(C=C2CN(CCCF)C2)cc1 [Compound 32, 8-(2-(fluoromethyl)phenyl)-9-(4-((1-(3-fluoropropyl)azetidin-3-ylidene)methyl)phenyl)-6,7-dihydro-5H-benzo[7]annulene-3-carboxylic acid] | 91 | 300 |
| O=C(O)c1ccc2c(c1)CCCC(c1cccc(F)c1OC(F)F)=C2c1ccc(C=C2CN(CCCF)C2)cc1 [Compound 33, 8-(2-(difluoromethoxy)-3-fluorophenyl)-9-(4-((1-(3-fluoropropyl)azetidin-3-ylidene)methyl)phenyl)-6,7-dihydro-5H-benzo[7]annulene-3-carboxylic acid] | 91 | 300 |
| O=C(O)c1ccc2c(c1)CCCC(c1cccc(Cl)c1OC(F)(F)F)=C2c1ccc(C=C2CN(CCCF)C2)cc1 [Compound 34, 8-(3-chloro-2-(trifluoromethoxy)phenyl)-9-(4-((1-(3-fluoropropyl)azetidin-3-ylidene)methyl)phenyl)-6,7-dihydro-5H-benzo[7]annulene-3-carboxylic acid] | 94 | 700 |
| COc1ccc(C2=C(c3ccc(C=C4CN(CCCF)C4)cc3)c3ccc(C(=O)O)cc3CCC2)c(C(F)F)c1 [Compound 37, 8-(2-(difluoromethyl)-4-methoxyphenyl)-9-(4-((1-(3-fluoropropyl)azetidin-3-ylidene)methyl)phenyl)-6,7-dihydro-5H-benzo[7]annulene-3-carboxylic acid] | 91 | 600 |
| O=C(O)c1ccc2c(c1)CCCC(c1cccc(F)c1CF)=C2c1ccc(C=C2CN(CCCF)C2)cc1 [Compound 38, 8-(3-fluoro-2-(fluoromethyl)phenyl)-9-(4-((1-(3-fluoropropyl)azetidin-3-ylidene)methyl)phenyl)-6,7-dihydro-5H-benzo[7]annulene-3-carboxylic acid] | 90 | 400 |
| CCc1c(F)cccc1C1=C(c2ccc(C=C3CN(CCCF)C3)cc2)c2ccc(C(=O)O)cc2CCC1 [Compound 39, 8-(2-ethyl-3-fluorophenyl)-9-(4-((1-(3-fluoropropyl)azetidin-3-ylidene)methyl)phenyl)-6,7-dihydro-5H-benzo[7]annulene-3-carboxylic acid] | 92 | 300 |
| COc1c(F)cccc1C1=C(c2ccc(C=C3CN(CCCF)C3)cc2)c2ccc(C(=O)O)cc2CCC1 [Compound 40, 8-(3-fluoro-2-methoxyphenyl)-9-(4-((1-(3-fluoropropyl)azetidin-3-ylidene)methyl)phenyl)-6,7-dihydro-5H-benzo[7]annulene-3-carboxylic acid] | 91 | 500 |
| COc1cccc(C2=C(c3ccc(C=C4CN(CCCF)C4)cc3)c3ccc(C(=O)O)cc3CCC2)c1C [Compound 41, 9-(4-((1-(3-fluoropropyl)azetidin-3-ylidene)methyl)phenyl)-8-(3-methoxy-2-methylphenyl)-6,7-dihydro-5H-benzo[7]annulene-3-carboxylic acid] | 91 | 700 |
